Results: the NIST ThermoML archive (doi:10.1021/acs.jced.8b01220)
Numbers after ± are expanded uncertainties.

Settings: Crystal; DSC

## CC(C)(N)CO [2-amino-2-methylpropan-1-ol]
  Triple point temperature: 295.75 ± 2 K
